Assay [1] relates to 45 different kinases. The experiment in a line: Kinase selectivity from screening over 45 different kinases. Type of assay: biochemical. As for the experimental part:
(§1) Kinase screening was performed using a “HotSpot” assay platform commercially available from Reaction Biology Corporation. For this kinase screening, reaction buffers were based on 20 mM Hepes (pH 7.5), 10 mM MgCl2, 1 mM EGTA, 0.02% Brij35, 0.02 mg/mL BSA, 0.1 mM Na3VO4, 2 mM DTT, and 1% DMSO, with supplementary factors necessary for respective kinase reactions added thereto. In each enzyme reaction, […] of each kinase was used together with a fresh reaction buffer and appropriate supplementary factors. A solution of each compound in DMSO was added in a suitable concentration to the reaction buffer. Kinase reaction started with the introduction of […] (specific activity […]) and continued for 2 hours at room temperature.
1) Screening of Compounds Over 45 Different Kinases
Each compound was tested twice at a single dose concentration of 10 μM. […] The reaction was performed with 10 μM ATP.

In assay [2] the target is ROS kinase (Homo sapiens, UniProt P08922). In words: ROS kinase screening (HotSpot, IC50 mode). Details: purchased Reaction Biology Corporation. Type of assay: biochemical. The conditions noted are these: 10-dose IC50 mode starting from 20 μM; 10 μM ATP; read-out: Inhibitory Activity against ROS (IC50). As for the experimental part:
as §1
The reaction was performed with 10 μM ATP.

Entries after “also recorded” stand apart in the source; their conditions may differ.

ROS kinase, sequence (P08922 28-2347): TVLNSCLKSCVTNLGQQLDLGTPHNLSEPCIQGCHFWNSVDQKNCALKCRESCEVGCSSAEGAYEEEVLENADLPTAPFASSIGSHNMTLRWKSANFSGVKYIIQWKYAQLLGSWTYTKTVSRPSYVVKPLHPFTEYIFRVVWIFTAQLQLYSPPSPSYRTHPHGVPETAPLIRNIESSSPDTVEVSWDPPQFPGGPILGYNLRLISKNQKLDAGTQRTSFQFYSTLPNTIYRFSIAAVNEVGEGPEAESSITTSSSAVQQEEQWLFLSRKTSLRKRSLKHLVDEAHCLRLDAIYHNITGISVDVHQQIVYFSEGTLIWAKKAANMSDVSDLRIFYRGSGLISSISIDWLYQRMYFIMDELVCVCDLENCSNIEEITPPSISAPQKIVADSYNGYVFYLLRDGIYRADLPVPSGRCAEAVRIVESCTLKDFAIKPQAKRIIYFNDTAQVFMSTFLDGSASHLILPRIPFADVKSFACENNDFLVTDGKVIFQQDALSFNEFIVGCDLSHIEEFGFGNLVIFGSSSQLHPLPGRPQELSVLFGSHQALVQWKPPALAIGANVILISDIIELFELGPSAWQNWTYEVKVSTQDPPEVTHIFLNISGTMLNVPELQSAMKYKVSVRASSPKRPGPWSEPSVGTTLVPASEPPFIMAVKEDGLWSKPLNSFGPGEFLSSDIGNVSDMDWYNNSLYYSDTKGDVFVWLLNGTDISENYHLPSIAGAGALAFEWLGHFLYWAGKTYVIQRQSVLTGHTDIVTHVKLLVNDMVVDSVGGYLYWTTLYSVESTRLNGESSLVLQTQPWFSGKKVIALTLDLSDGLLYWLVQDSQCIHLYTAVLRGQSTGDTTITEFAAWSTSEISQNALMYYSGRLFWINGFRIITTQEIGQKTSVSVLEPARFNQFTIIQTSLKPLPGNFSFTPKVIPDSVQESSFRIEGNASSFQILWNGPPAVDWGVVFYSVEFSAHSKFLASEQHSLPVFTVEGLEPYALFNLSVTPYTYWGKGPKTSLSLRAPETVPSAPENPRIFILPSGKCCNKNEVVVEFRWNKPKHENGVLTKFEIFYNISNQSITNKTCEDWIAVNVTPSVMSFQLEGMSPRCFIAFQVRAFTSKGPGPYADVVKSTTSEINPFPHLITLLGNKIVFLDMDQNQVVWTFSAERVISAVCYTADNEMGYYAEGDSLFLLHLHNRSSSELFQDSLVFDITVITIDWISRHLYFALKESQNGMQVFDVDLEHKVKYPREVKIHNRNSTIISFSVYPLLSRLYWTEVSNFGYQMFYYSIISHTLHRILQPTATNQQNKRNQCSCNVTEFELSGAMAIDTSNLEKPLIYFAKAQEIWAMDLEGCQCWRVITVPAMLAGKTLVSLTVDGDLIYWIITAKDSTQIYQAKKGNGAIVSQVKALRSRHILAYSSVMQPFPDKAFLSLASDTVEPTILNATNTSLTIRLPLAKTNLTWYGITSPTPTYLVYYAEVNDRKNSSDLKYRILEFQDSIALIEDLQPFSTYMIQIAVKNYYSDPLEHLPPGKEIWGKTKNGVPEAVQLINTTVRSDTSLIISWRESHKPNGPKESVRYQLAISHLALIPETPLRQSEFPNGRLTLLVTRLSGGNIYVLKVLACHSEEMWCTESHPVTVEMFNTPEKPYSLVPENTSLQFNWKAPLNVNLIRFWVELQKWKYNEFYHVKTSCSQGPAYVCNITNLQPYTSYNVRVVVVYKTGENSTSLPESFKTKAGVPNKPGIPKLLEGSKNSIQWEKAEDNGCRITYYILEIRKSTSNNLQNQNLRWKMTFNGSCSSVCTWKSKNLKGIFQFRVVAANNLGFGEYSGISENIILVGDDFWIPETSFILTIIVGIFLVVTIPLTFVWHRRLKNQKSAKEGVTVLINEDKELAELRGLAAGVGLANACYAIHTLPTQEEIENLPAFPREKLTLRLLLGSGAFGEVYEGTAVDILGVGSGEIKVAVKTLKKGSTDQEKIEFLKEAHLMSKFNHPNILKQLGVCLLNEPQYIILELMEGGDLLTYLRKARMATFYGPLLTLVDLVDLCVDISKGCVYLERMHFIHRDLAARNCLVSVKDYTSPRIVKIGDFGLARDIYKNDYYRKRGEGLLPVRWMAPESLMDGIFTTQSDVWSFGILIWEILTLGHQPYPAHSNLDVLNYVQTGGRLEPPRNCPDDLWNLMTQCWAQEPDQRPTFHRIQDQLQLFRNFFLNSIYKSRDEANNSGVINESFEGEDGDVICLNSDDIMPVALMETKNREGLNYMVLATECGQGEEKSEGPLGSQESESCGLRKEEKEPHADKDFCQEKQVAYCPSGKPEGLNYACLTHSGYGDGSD

For orientation: IC50 means the concentration needed to halve the response being measured. Turning to `Cc1cc(O)cc(-c2nn(CC#N)cc2-c2ccnc(-c3cccnc3)c2)c1` [Example 44, [3-(3-hydroxy-5-methylphenyl)-4-(2-(pyridin-3-yl)pyridin-4-yl)-pyrazol-1-yl]acetonitrile], the “Notes (selectivity for ROS)” value in assay [1] is reported as “ROS selectivity; also recorded: Selective for ROS”. Also, in assay [2], the IC50 amounted to 209 nM.
